molecular target: T1, Axl (Homo sapiens, UniProt P30530); assay: Phospho-Akt in-cell Western assay (inhibition of Axl activity); format: cell-based; settings: Hela cells; 1 hr pre-treatment; stimulation by Axl-antibody cross-linking; phospho-Akt chemiluminescence normalized to relative cell number
T1 construct: Cells: Hela cells; endogenous in cells; host or cells: HeLa cells
T1 sequence (P30530 26-894): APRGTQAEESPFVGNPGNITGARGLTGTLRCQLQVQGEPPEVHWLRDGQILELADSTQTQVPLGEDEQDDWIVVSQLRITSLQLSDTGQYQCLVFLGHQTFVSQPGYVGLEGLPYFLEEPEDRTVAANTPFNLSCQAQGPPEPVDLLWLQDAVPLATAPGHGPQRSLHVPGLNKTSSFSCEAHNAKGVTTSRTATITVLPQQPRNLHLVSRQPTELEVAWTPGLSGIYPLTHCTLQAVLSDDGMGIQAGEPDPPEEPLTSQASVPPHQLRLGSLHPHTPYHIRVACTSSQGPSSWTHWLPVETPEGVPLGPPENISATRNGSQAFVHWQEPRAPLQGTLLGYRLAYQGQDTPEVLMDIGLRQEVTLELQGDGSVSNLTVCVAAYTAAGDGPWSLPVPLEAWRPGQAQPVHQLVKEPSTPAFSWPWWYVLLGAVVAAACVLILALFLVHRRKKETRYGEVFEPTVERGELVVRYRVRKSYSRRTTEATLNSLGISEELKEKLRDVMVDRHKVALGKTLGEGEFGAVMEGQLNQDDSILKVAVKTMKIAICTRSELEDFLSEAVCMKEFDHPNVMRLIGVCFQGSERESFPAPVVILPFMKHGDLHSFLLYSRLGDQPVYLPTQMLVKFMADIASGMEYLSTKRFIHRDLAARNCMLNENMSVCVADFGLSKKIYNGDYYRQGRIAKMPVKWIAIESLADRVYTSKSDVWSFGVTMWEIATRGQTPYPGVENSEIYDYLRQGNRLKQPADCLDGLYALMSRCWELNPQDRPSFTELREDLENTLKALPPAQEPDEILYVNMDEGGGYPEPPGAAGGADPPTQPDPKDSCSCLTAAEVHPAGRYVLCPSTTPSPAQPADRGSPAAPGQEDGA
Procedure: The compounds of the invention were tested in the following assay for their ability to inhibit Axl activity.
Phospho-Akt in-Cell Western Assay
• Cell culture plate: 96 well assay plate (Corning 3610), white, clear bottom, tissue-culture treated. • Cells: Hela cells. • Starvation medium: For Axl stimulation: 0.5% FCS (fetal calf serum) in DMEM, plus Axl/Fc (extracellular domain of AXL fused to immunoglobulin Fc region) (R&D, 154-AL) 500 ng/mL. • For EGF (epidermal growth factor) stimulation: 0.5% FCS in DMEM (Dulbecco's modified Eagles medium). • Poly-L-Lysine 0.01% solution (the working solution): […], dilute In PBS (phosphate buffered saline). • Axl antibody cross-linking: • 1st: Mouse anti-Axl (R&D, MAB154). • 2nd: Biotin-SP-conjugated AffiniPure goat anti-mouse IgG (H+ L) (Jackson ImmunoResearch #115-065-003). • Fixing buffer: 4% formaldehyde in PBS. • Wash buffer: 0.1% TritonX-100 in PBS. • Quenching buffer: 3% H2O2, 0.1% Azide in wash buffer, Azide and hydrogen peroxide (H2O2) are added fresh. • Blocking buffer: 5% BSA in TBST (tris buffered saline plus 0.1% Tween 20). • Primary antibody: Rabbit anti-human Phospho-Akt antibody (Cell Signaling 9271): 1×250 diluted in blocking buffer. • Secondary antibody: HRP (horse radish peroxidase)-conjugated Goat anti-Rabbit secondary, stock solution: Jackson ImmunoResearch (Goat anti-Rabbit HRP, #111-035-144) 1:1 diluted in glycerol, store at −20° C. The working solution: 1×2000 dilution of stock in blocking buffer. • Chemiluminescent working solution (Pierce, 37030): SuperSignal ELISA (enzyme linked immunosorbant assay) Pico Chemiluminescent substrate. • Crystal Violet solution: Stock: 2.5% Crystal violet in methanol, filtered and kept at ambient temperature. The working solution: dilute the stock 1:20 with PBS immediately before use. • 10% SDS: working solution: 5% SDS (sodium dodecylsulfate), diluted in PBS Methods: Day 1:
A 96 well TC (tissue culture treated) plate was coated with 10 μg/mL poly-L-Lysine at 37° C. for 30 min, washed twice with PBS, and air-dried for 5 minutes before cells were added. Hela cells were seeded at 10,000 cells/well and the cells were starved in 100 μL starvation medium containing Axl/Fc for 24 hrs.
The cells were pre-treated with test compounds by adding 100 μL of 2× test compound to the starvation medium on the cells. The cells were incubated at 37° C. for 1 hr before stimulation.
The cells were stimulated by Axl-antibody cross-linking as follows: A 5× 1st/2nd Axl antibody mixture was made (37.5 μg/mL 1st/100 μg/mL 2nd) in starvation medium and nutated at 4° C. with thorough mixing for 1-2 hours for clustering. The resulting mix was warmed to 37° C. 50 μL of 5× Axl 1st/2nd of antibody cluster was added to the cells and the cells were incubated at 37° C. for 5 min.
After 5 minutes stimulation, the plate was flicked to remove medium and the plate was tapped onto paper towels. Formaldehyde (4.0% in PBS, 100 μL) was added to fix the cells and the cells were incubated at ambient temperature for 20 min without shaking.
The cells were washed with a plate washer buffer to remove the formaldehyde solution. The plate was flicked to removed excess wash buffer and tapped onto paper towels. Quenching buffer (100 μL) was added to each well and the cells were incubated at ambient temperature for 20 minutes without shaking.
The cells were washed with a plate washer buffer to remove the quenching buffer. Blocking buffer (100 μL) was added and the cells were incubated at ambient temperature for at least an hour with gentle shaking.
The cells were washed with a plate washer buffer and diluted primary antibody (50 μL) was added to each well (blocking buffer was added to the negative control wells instead). The plates were incubated overnight at 4° C. with gentle shaking.
The wash buffer was removed, diluted secondary antibody (100 μL) was added, and the cells were incubated at ambient temperature for 1 hour with gentle shaking. […]

Row | IC50 [µM] | Structure (SMILES)
1 | < 1 | Nc1nc(Nc2ccc(OCCN3CCCC3)cc2)nn1-c1ncc2c(n1)CCCCCC2 [Compound 1, 1-(5,6,7,8,9,10-hexahydrocycloocta[d]pyrimidin-2-yl)-N^3-(4-(2-(pyrrolidin-1-yl)ethoxy)phenyl)-1H-1,2,4-triazole-3,5-diamine]
2 | < 1 | CN1CCN(c2ccc(Nc3nc(N)n(-c4ncc5c(n4)CCCCCC5)n3)cc2)CC1 [Compound 2, 1-(5,6,7,8,9,10-hexahydrocycloocta[d]pyrimidin-2-yl)-N^3-(4-(4-methylpiperazin-1-yl)phenyl)-1H-1,2,4-triazole-3,5-diamine]
3 | < 1 | Nc1nc(Nc2ccc(N3CCN(C4CC5CCC4C5)CC3)cc2)nn1-c1ncc2c(n1)CCCCCC2 (stereo not drawn) [Compound 3, N^3-(4-(4-(bicyclo[2.2.1]heptan-2-yl)piperazin-1-yl)phenyl)-1-(5,6,7,8,9,10-hexahydrocycloocta[d]pyrimidin-2-yl)-1H-1,2,4-triazole-3,5-diamine]
4 | < 1 | CN1CCCN(c2ccc(Nc3nc(N)n(-c4ncc5c(n4)CCCCCC5)n3)cc2F)CC1 [Compound 4, N^3-(3-fluoro-4-(4-methyl-1,4-diazepan-1-yl)phenyl)-1-(5,6,7,8,9,10-hexahydrocycloocta[d]pyrimidin-2-yl)-1H-1,2,4-triazole-3,5-diamine]
5 | < 1 | Nc1nc(Nc2ccc(N3CCN(C4CCCCC4)CC3)cc2)nn1-c1ncc2c(n1)CCCCCC2 [Compound 5, N^3-(4-(4-cyclohexylpiperazin-1-yl)phenyl)-1-(5,6,7,8,9,10-hexahydrocycloocta[d]pyrimidin-2-yl)-1H-1,2,4-triazole-3,5-diamine]
6 | 1 to 10 | CN(C)[C@@H]1CCN(c2ccc(Nc3nc(N)n(-c4ncc5c(n4)CCCCCC5)n3)cc2)C1 [Compound 6, (R)—N^3-(4-(3-(dimethylamino)pyrrolidin-1-yl)phenyl)-1-(5,6,7,8,9,10-hexahydrocycloocta[d]pyrimidin-2-yl)-1H-1,2,4-triazole-3,5-diamine]
7 | 1 to 10 | CN(C)[C@H]1CCN(c2ccc(Nc3nc(N)n(-c4ncc5c(n4)CCCCCC5)n3)cc2)C1 [Compound 7, (S)—N^3-(4-(3-(dimethylamino)pyrrolidin-1-yl)phenyl)-1-(5,6,7,8,9,10-hexahydrocycloocta[d]pyrimidin-2-yl)-1H-1,2,4-triazole-3,5-diamine]
8 | < 1 | Nc1nc(Nc2ccc(N3CCN(C4CCCCC4)CC3)c(Cl)c2)nn1-c1ncc2c(n1)CCCCCC2 [Compound 8, N^3-(3-chloro-4-(4-cyclohexylpiperazin-1-yl)phenyl)-1-(5,6,7,8,9,10-hexahydrocycloocta[d]pyrimidin-2-yl)-1H-1,2,4-triazole-3,5-diamine]
9 | 1 to 10 | CN1CCN(Cc2ccc(Nc3nc(N)n(-c4ncc5c(n4)CCCCCC5)n3)cc2)CC1 [Compound 9, 1-(5,6,7,8,9,10-hexahydrocycloocta[d]pyrimidin-2-yl)-N^3-(4-((4-methylpiperazin-1-yl)methyl)phenyl)-1H-1,2,4-triazole-3,5-diamine]
10 | < 1 | Nc1nc(Nc2ccc(N3CCC(N4CCCC4)CC3)c(F)c2)nn1-c1ncc2c(n1)CCCCCC2 [Compound 10, N^3-(3-fluoro-4-(4-(pyrrolidin-1-yl)piperidin-1-yl)phenyl)-1-(5,6,7,8,9,10-hexahydrocycloocta[d]pyrimidin-2-yl)-1H-1,2,4-triazole-3,5-diamine]
11 | > 20 | CN1CCc2ccc(Nc3nc(N)n(-c4ncc5c(n4)CCCCCC5)n3)cc2C1 [Compound 12, 1-(5,6,7,8,9,10-hexahydrocycloocta[d]pyrimidin-2-yl)-N^3-(2-methyl-1,2,3,4-tetrahydroisoquinolin-7-yl)-1H-1,2,4-triazole-3,5-diamine]
12 | > 20 | Nc1nc(Nc2ccc(N3CCN(c4ccc(F)cc4)CC3)cc2)nn1-c1ncc2c(n1)CCCCCC2 [Compound 13, N^3-(4-(4-(4-fluorophenyl)piperazin-1-yl)phenyl)-1-(5,6,7,8,9,10-hexahydrocycloocta[d]pyrimidin-2-yl)-1H-1,2,4-triazole-3,5-diamine]
13 | 1 to 10 | CCOC(=O)N1CCN(c2ccc(Nc3nc(N)n(-c4ncc5c(n4)CCCCCC5)n3)cc2F)CC1 [Compound 14, ethyl 4-(4-(5-amino-1-(5,6,7,8,9,10-hexahydrocycloocta[d]pyrimidin-2-yl)-1H-1,2,4-triazol-3-ylamino)-2-fluorophenyl)piperazine-1-carboxylate]
14 | < 1 | CC(C)(COc1ccc(Nc2nc(N)n(-c3ncc4c(n3)CCCCCC4)n2)cc1)N1CCCC1 [Compound 15, 1-(5,6,7,8,9,10-hexahydrocycloocta[d]pyrimidin-2-yl)-N^3-(4-(2-methyl-2-(pyrrolidin-1-yl)propoxy)phenyl)-1H-1,2,4-triazole-3,5-diamine]
15 | < 1 | Nc1nc(Nc2ccc(N3CCN(C4CCCCC4)CC3)cc2)nn1-c1cc2c(nn1)CCCCCC2 [Compound 16, N^3-(4-(4-cyclohexylpiperazin-1-yl)phenyl)-1-(5,6,7,8,9,10-hexahydrocycloocta[c]pyridazin-3-yl)-1H-1,2,4-triazole-3,5-diamine]
16 | < 1 | Nc1nc(Nc2ccc(N3CCC(N4CCCC4)CC3)c(F)c2)nn1-c1cc2c(nn1)CCCCCC2 [Compound 17, N^3-(3-fluoro-4-(4-(pyrrolidin-1-yl)piperidin-1-yl)phenyl)-1-(5,6,7,8,9,10-hexahydrocycloocta[c]pyridazin-3-yl)-1H-1,2,4-triazole-3,5-diamine]
17 | < 1 | Nc1nc(Nc2ccc(OCCN3CCCC3)cc2)nn1-c1cc2c(nn1)CCCCCC2 [Compound 18, 1-(5,6,7,8,9,10-hexahydrocycloocta[c]pyridazin-3-yl)-N^3-(4-(2-(pyrrolidin-1-yl)ethoxy)phenyl)-1H-1,2,4-triazole-3,5-diamine]
18 | 1 to 10 | CS(=O)(=O)N1CCN(c2ccc(Nc3nc(N)n(-c4ncc5c(n4)CCCCCC5)n3)cc2F)CC1 [Compound 19, N^3-(3-fluoro-4-(4-(methylsulfonyl)piperazin-1-yl)phenyl)-1-(5,6,7,8,9,10-hexahydrocycloocta[d]pyrimidin-2-yl)-1H-1,2,4-triazole-3,5-diamine]

Source: patent US8809347B2, “Bicyclic aryl and bicyclic heteroaryl substituted triazoles useful as AXL inhibitors” (Rigel Pharmaceuticals, Inc., priority 2006, dated 2014)
